Assays:
[1] = system: HASMC (human aortic smooth muscle cells); test: MTS cell viability analysis, HASMC; format: cell-based
Description: (§1) MTS analysis was performed using CellTiter96 Aqueous Non-Radioactive Cell Proliferation Assay kit (Promega, Madison, WI, USA) as specified by the manufacturer. Cells were seeded at a density of 5,000 cells per well, and allowed to adhere overnight. Cellular viability was assessed 24 h after treatment with DMSO (control), or 10, 50, or 100 nM verticillin A, and absorbance was measured at 490 nm wavelength.
(§2) In vitro analyses were performed in triplicate. Mean ± SEM (standard error mean) calculations and statistical analyses were performed for all cell-based assays, and EC50 values were computed using GraphPad Prism version 6.00 (for Windows, GraphPad Software, La Jolla California USA, www.graphpad.com). All Student t tests performed were unpaired and two-sided. The average tumor volume (mm^3) and weight ([…]) for each study arm was measured and recorded. Mean ± SEM was calculated for each treatment group, and end-point analyses determined using unpaired two-sided t test was utilized to determine variances. *p ≤ 0.05; **p ≤ 0.01; ***p ≤ 0.001.

[2] = system: HSC (human Schwann cells); test: MTS cell viability analysis, HSC; format: cell-based
Description: as §1, §2

[3] = system: MPNST724 cells; test: MTS cell viability analysis, MPNST724; format: cell-based, human
Description: as §1, §2

[4] = system: S462 cells; test: MTS cell viability analysis, S462; format: cell-based, human
Description: as §1, §2

[5] = system: SKLMS1 cells; test: MTS cell viability analysis, SKLMS1; format: cell-based
Description: as §1, §2

[6] = system: LMS1 cells; test: MTS cell viability analysis, LMS1; format: cell-based
Description: as §1, §2

[7] = system: ST88 cells; test: MTS cell viability analysis, ST88; format: cell-based, human; conditions: 24 h
Description: as §1, §2

[8] = system: MPNST and LMS cell lines; test: Clonogenic analysis; format: cell-based; conditions: all doses, 24 h treatment then 10 days recovery
Description: Cells were seeded at 800 cells per well in a 6-well plate (9.5 cm^2) and allowed to attach overnight prior to treatment with DMSO or varying concentrations of verticillin A. Cells were treated for 24 h, then changed to recovery media and allowed to continue to grow for 10 days. Colonies were stained using 0.5% crystal violet solution in methanol for 30 min. Staining solution was removed, wells were washed with deionized H2O, and stained colonies were imaged and counted.

[9] = system: MPNST and LMS cell lines; test: Cell cycle analysis (PI, FACS); format: cell-based; conditions: MPNST and LMS cells, 24 h treatment
Description: Cells were synchronized by 16 h starvation prior to treatment with DMSO, 10, 50, or 100 nM of verticillin A for 24 h. Attached and floating cells were collected following treatment and centrifuged for 5 min at 2500 RPM. Supernatant was removed and cells were washed twice with cold PBS. Cells were centrifuged (2500 RPM/5 min) and resuspended in 70% ethanol and fixed overnight at −20° C. Cells were then centrifuged at (2500 RPM/5 min), and ethanol was removed. Subsequently, cells were resuspended in 400 µL PI stain (0.05 mg/mL/ 1 mg/mL sodium citrate/ 50 µL Triton-X-100/ 50 µL RNase A, brought to 50 mL with PBS) and analyzed via LSR II FACS analysis.

[10] = system: HSC; test: Cleaved caspase 3/7 activity, HSC; format: cell-based, human; conditions: 24 h
Description: (§3) Apoptosis was measured by quantifying cleaved-caspase 3 and cleaved-caspase 7 activity using Cell Event Caspase 3/7 Green Detection Reagent (Life Technologies, Carlsbad, CA, USA) in the Incucyte Zoom system (Essen BioScience, Ann Arbor, MI, USA). Cells were plated at a density of 4,200 cells per well and allowed to adhere. The cells were then treated with DMSO or 10, 50, or 100 nM verticillin A for 24 h, and caspase activity was monitored using fluorescent Cell Event Caspase 3/7 Reagent (5 µM final concentration). Endpoint analysis was performed in each well using a final concentration of 10 µM Vybrant DyeCycle Green Stain (Life Technologies, Carlsbad, CA, USA) in complete DMEM. Apoptosis was confirmed using the Apoptosis Detection Kit (BD Pharmagen, San Diego, CA, USA) in complete DMEM. Per supplier instructions, 1 × 10^6 cells/mL were stained with 5 µL Annexin V-FITC and 5 µL propidium iodide following 24 h treatment with DMSO or 10, 50, or 100 nM verticillin A and analyzed via FACS analysis (LSR II, BD Pharmagen, San Diego, CA, USA).

[11] = system: HASMC; test: Cleaved caspase 3/7 activity, HASMC; format: cell-based, human; conditions: 24 h
Description: as §3

[12] = system: MPNST and LMS cell lines; test: Cleaved caspase 3/7 activity, MPNST and LMS cell lines; format: cell-based; conditions: all MPNST and LMS cell lines
Description: as §3

[13] = system: LMS1 cells; test: Annexin V/PI FACS analysis, LMS1; format: cell-based; conditions: LMS1, 24 h treatment, concentration not given
Description: as §3

[14] = system: MPNST724 cells; test: Annexin V/PI FACS analysis, MPNST724; format: cell-based, human; conditions: MPNST724, 24 h treatment, concentration not given
Description: as §3

[15] = system: SKLMS1 cells; test: Annexin V/PI FACS analysis, SKLMS1; format: cell-based; conditions: SKLMS1, 24 h treatment, concentration not given
Description: as §3

[16] = system: S462 cells; test: Annexin V/PI FACS analysis, S462; format: cell-based, human; conditions: S462, 24 h treatment, concentration not given
Description: as §3

[17] = system: MPNST724 xenografts; test: MPNST724 xenograft model; format: in vivo, SCID mice
Description: Six week old female SCID mice (Taconic Biosciences, Hudson, NY, USA; model ^#CB17SC) were injected subcutaneously with 1 × 10^6 MPNST724 cells into the flank. Once tumors reached 0.5 cm, mice were allocated into three arms (10 mice per arm) and treatment via intraperitoneal injections was initiated: Vehicle (5% ethanol/15% cremophor EL/80% PBS), verticillin A (0.25 mg/kg every other day), or verticillin A (0.5 mg/kg every other day). Mice were weighed and tumors were measured twice weekly. Mice were euthanized once tumors in the control group grew to ~1.5 cm. Final tumor volumes and weights were measured, and tumors were processed for IHC analysis.
Ki67 (Vector Laboratories) and cleaved caspase 3 (Cell Signaling) antibodies were used to identify the effect of verticillin A on proliferation and apoptosis, respectively. IHC staining was conducted at Nationwide Children’s Hospital (Columbus, OH) and analysis was performed at the Polaris Innovation Center (The Ohio State University, Columbus, OH, USA). IHC samples and analyses were verified by pathologist, O. Hans Iwenofu, M.D. (The Ohio State University, Department of Pathology, Columbus, OH, USA).
as §2

[18] = system: SW620 colon cancer cells; design: method as in PMID 21911457; conditions: cited from earlier work
[19] = system: HepG2 liver carcinoma cells; design: method as in PMID 21911457; conditions: cited from earlier work
[20] = Homo sapiens, MTS, 24 h treatment
[21] = 0.5 mg/kg intraperitoneal every other day, day 11
[22] = MPNST724 xenograft tumors, 0.5 mg/kg

## CN1C(=O)C23SSC1(C)C(=O)N2C1Nc2ccccc2C1(C12c4ccccc4NC1N1C(=O)C4(C)SSC1(C(=O)N4C)C2O)C3O (stereo not shown) [verticillin A]
[1]; 100 nM
  effect on cell viability: no effect
[1]; [20]
  EC50: 251 nM
[2]; [20]
  EC50: 64.9 nM
[2]; highest treatment dose
  toxicity to normal cells: toxicity was seen
[3]; Homo sapiens, MPNST724, MTS, 24 h treatment
  EC50: 125 nM
[3]; MPNST724, 10 nM, 24 h
  effect on cell viability: exhibited tolerance
[3]; MPNST724, 100 nM, 24 h
  cellular growth reduction: 39.7%
[4]; Homo sapiens, S462, MTS, 24 h treatment
  EC50: 26 nM
[4]; S462, 10 nM, 24 h
  effect on cell viability: marked inhibitory effect
[4]; S462, 100 nM, 24 h
  cellular growth reduction: 88.7%
[5]; Homo sapiens, SK-LMS-1, SKLMS1, MTS, 24 h treatment
  EC50: 74.6 nM
[5]; SKLMS1, 10 nM, 24 h
  effect on cell viability: exhibited tolerance
[5]; SKLMS1, 100 nM, 24 h
  cellular growth reduction: 57%
[6]; LMS1, 10 nM, 24 h
  effect on cell viability: marked inhibitory effect
[6]; LMS1, 100 nM, 24 h
  cellular growth reduction: 96.7%
[6]; LMS1, MTS, 24 h treatment
  EC50: 10.7 nM
[7]; ST88, 10 nM
  effect on cell viability: marked inhibitory effect
[7]; ST88, 100 nM
  cellular growth reduction: 72.7%
[8]
  colony formation capacity: unable to form colonies
[9]
  cell cycle arrest: No substantial arrest in cell cycle progression
[10]
  cleaved caspase 3/7 activity: 1.1 fold change
[11]
  cleaved caspase 3/7 activity: 1.2 fold change
[12]
  increase in cleaved caspase 3/7 activity: nearly two-fold increase
[13]
  apoptosis (Annexin V/PI): 73.4 ± 12.7%
[14]
  apoptosis (Annexin V/PI): 34 ± 4.3%
[15]
  apoptosis (Annexin V/PI): 29.4 ± 2.3%
[16]
  apoptosis (Annexin V/PI): 25.9 ± 3.75%
[17]; 0.25 mg/kg intraperitoneal every other day, day 11
  tumor volume: 355.89 mm^3
[17]; 0.5 mg/kg arm, 10 mice per arm
  verticillin A-induced mortality: 2 mice
[17]; 0.5 mg/kg intraperitoneal every other day
  toxicity signs in mice: reduced grooming tendencies and mild weight loss
[17]; [21]
  tumor volume: 160.92 mm^3
  tumor weight: 0.2 g
[17]; [22]
  decrease in Ki67 proliferation marker expression (IHC): ~40%
  increase in cleaved caspase 3 expression (IHC): 5.5 fold
[17]; lower dose (0.25 mg/kg)
  toxicity signs in mice: Minor signs of toxicity
[18]
  cell cycle effect: induce G2 cell cycle arrest
[19]
  cell cycle effect: no changes in cell cycle progression

From PMC5295762, “Verticillin A Inhibits Leiomyosarcoma and Malignant Peripheral Nerve Sheath Tumor Growth via Induction of Apoptosis” (Clinical & experimental pharmacology, 2016)
